Data as given in patent US7053090B2, “Triazaspiro[5.5]undecane derivatives and drugs containing the same as the active ingredient” (Ono Pharmaceutical Co., Ltd., priority 2001, dated 2006).
pIC50: −log10 of the molar value. Where a name gives a salt, the structure may show the parent alone.

Molecular target: T1, human CCR5 (Homo sapiens, UniProt P51681)
T1 construct: expressed in transfected cells; host or cells: CHO-dhfr(-) cells stably transfected with pEF-BOS-bsr/hCCR5
Assay: Inhibition test on the binding of RANTES to CCR5 (RANTES-induced transient increase of Ca ion)
Assay type: cell-based
Conditions: human CCR5 stably over-expressing CHO cell; recombinant human RANTES 10 nM; intracellular Ca2+ transient increase
Method: (1) Isolation of Human CCR5 Gene
Human placental cDNA was prepared using Marathon cDNA amplification kit (Clontech). PCR primers hCCR5Xbal-F1: 5′-[…]-3′ (SEQ ID NO:1) and hCCR5Xbal-R1: 5′-[…]-3′ (SEQ ID NO:2) were designed based on the sequence of GenBank U54994.
Using the human placental cDNA as the template and using Ex Taq (Takara), PCR reaction (2 minutes at 95° C.→(30 seconds at 95° C., 45 seconds at 60° C., 1 minute at 72° C.)×35 times) was carried out. The thus amplified PCR product was subjected to a 1% agarose gel electrophoresis, purified using QIAquick Gel Extraction Kit (QUIAGEN) and then digested with a restriction enzyme Xbal. The digested fragments were ligated to an expression vector pEF-BOS-bsr using DNA Ligation Kit Ver. […]
The thus established human CCR5 stably over-expressing CHO cell (CCR5/CHO cell) was suspended in Ham's F-12 medium containing FBS (10%) and dispensed in […] portions into a 96 well plate. […] Transient increase in the intracellular Ca^2+ concentration induced by the human RANTES was measured using a Ca^2+ detector for 96 well use (Hamamatsu Photonics), and inhibition ratio (%) of the test compound was calculated by the following calculation formula. Inhibition ratio=(Ec−Ea)/Ec×100 • Ec: measured value of Ca^2+ transient increase by RANTES • Ea: measured value of Ca^2+ transient increase by RANTES when a test compound was added.

T1 sequence (P51681 whole entry): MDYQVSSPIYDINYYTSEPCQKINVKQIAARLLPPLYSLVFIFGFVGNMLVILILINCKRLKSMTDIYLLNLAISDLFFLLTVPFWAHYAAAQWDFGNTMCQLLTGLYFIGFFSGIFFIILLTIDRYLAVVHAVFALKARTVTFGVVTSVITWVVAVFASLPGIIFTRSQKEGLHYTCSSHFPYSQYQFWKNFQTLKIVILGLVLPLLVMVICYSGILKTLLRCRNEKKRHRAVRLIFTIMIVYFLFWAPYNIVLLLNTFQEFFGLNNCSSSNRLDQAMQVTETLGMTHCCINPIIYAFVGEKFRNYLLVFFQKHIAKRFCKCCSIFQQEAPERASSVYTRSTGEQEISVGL

| SMILES | pIC50 |
| --- | --- |
| CCCCN1C(=O)[C@@H]([C@H](O)C(C)C)NC(=O)C12CCN(Cc1ccc(Oc3ccccc3)nc1)CC2 [Example 2, (3R)-1-butyl-2,5-dioxo-3-((1R)-1-hydroxy-2-methylpropyl)-9-(6-phenyloxypyridin-3-ylmethyl)-1,4,9-triazaspiro[5.5]undecane.2hydrochloride] | 7.57 |
| CCCCN1C(=O)[C@H]([C@@H](O)C(C)C)NC(=O)C12CCN(Cc1ccc(Oc3ccccc3)nc1)CC2 [Example 3, (3S)-1-butyl-2,5-dioxo-3-((1S)-1-hydroxy-2-methylpropyl)-9-(6-phenyloxypyridin-3-ylmethyl)-1,4,9-triazaspiro[5.5]undecane.2hydrochloride] | 6.43 |
